Experimental data published in PMC9410094 (Marine Drugs, 2022).
In brackets after ≈: the same amount, converted by molar mass. Positions of bridges follow the written chain, without caps; N, C: chain ends. Residues, ends and D or L forms follow the SMILES beside them.

Experiments:
Gram-positive bacteria = format: cell-based; conditions: 24 h
Method: (§1) The antimicrobial activity of the peptides was determined via the method of two-fold serial dilutions in sterile 96-well flat-bottom polystyrene microplates (Eppendorf #0030730011) in Mueller–Hinton broth (MHB, Sigma, Kawasaki, Kanagawa, Japan) supplemented with 0.9% NaCl. Bacterial cultures were grown in MHB at 37 °C until the culture reached an optical density OD600 of 1.0 and diluted with the broth so that to reach a final cell concentration of 10^6 CFU/mL. Then 50 μL of the test culture were added to 50 μL of aqueous solutions of the peptides, previously diluted in 0.1% sterilized bovine serum albumin (BSA) to reduce non-specific binding of the peptides to the surface of the plates. Next, the plate was incubated for 24 h at 37 °C and 950 rpm on the plate thermoshaker (Biosan). The values of the minimum inhibitory concentrations (MIC) were determined as the minimum concentration of the peptide, at which there is no culture growth. The results were expressed as the median values of three independent experiments performed in triplicate.

[1] = RP-HPLC retention time as measure of hydrophobicity; format: physicochemical; conditions: chromatographic, semipreparative RP-HPLC, C18 column, linear gradient 5 to 80% (v/v) acetonitrile in water with 0.1% TFA within 50 minutes; used as measure of hydrophobicity
Method: Table S1. Characteristics of the recombinant AMPs.
1 Mean Kyte–Doolittle hydrophobicity index (GRAVY) was calculated using the Expasy ProtParam tool. The maximum and minimum values of this index are +4.5 and -4.5 for poly-Ile and poly-Arg sequences, respectively. 2 Retention times were measured using semipreparative reversed-phase high-performance liquid chromatography (RP - HPLC) on a C18 column with a linear gradient from 5 to 80% ( v/v) acetonitrile in water containing 0.1% trifluoroacetic […]
acid (TFA) within 50 minutes. […]

human red blood cells = format: cell-based
Method: Figure 4 (A) Hemolytic effect on human red blood cells after 2 h incubation (hemoglobin release assay). (B) Cytotoxicity toward transformed human embryonic kidney cells after 20 h incubation (MTT-assay). The positive control used was 0.1% Triton X-100 and sterile PBS as a negative control. Melittin was used as an additional positive control. The data are presented as the mean ± SD of three independent experiments.
The hemolytic activity of compounds was performed using human red blood cells (hRBS) of healthy donor. Fresh blood was centrifuged to separate the erythrocyte fraction for 15 min at 500 g and washed three times with cold phosphate-buffered saline (PBS) (pH 7.4), after which an 8% (v/v) suspension of erythrocytes in PBS was prepared. Then, 50 µL of erythrocyte suspension was added to the test peptides, previously were dissolved in 50 µL of 0.1% BSA. The plate was incubated for 1.5 h at 37 °C and 950 rpm on the plate thermoshaker. After incubation, the plates were centrifuged for 15 min at 1000 g to settle intact erythrocytes. Next, aliquots of the supernatant were transferred to another plate to measure the amount of hemoglobin release by the absorbance of the solution at 405 nm. As “zero lysis” we used the supernatant obtained after centrifugation of erythrocytes incubated in a PBS solution without the addition of a peptide. As “100% lysis”, we used the supernatant obtained after centrifugation of erythrocytes incubated in a 0.1% Triton X-100, causing their complete lysis. The assays were conducted three times. The quantitative data were presented as an average means with standard deviations. Hemolysis(%)=OD405(compound)−OD405(zerolysis)/OD405(100%lysis)−OD405(zerolysis)×100%

Gram-negative bacteria = experiment: Geometric mean of MICs, Gram-negative panel; format: cell-based; conditions: geometric mean (GM) of MICs against the 14 Gram-negative strains of Figure 2
Method: as §1

CC[C@H](C)[C@@H]1NC(=O)[C@H](CCCNC(=N)N)NC(=O)[C@H](C(C)C)NC(=O)CNC(=O)[C@H](CC(N)=O)NC(=O)[C@H](CCCNC(=N)N)NC(=O)[C@H](CC(C)C)NC(=O)[C@H](C)NC(=O)[C@@H]2CSSC[C@H](NC1=O)C(=O)N[C@@H](Cc1ccc(O)cc1)C(=O)N[C@@H](CCCNC(=N)N)C(=O)N[C@@H](CCCNC(=N)N)C(=O)N[C@H](C(=O)N[C@@H](CC(N)=O)C(=O)O)CSSC[C@H](NC(=O)[C@H](Cc1ccc(O)cc1)NC(=O)CN)C(=O)N[C@@H](Cc1ccccc1)C(=O)N[C@@H]([C@@H](C)O)C(=O)N[C@@H](C)C(=O)N2 [Ap1] (H-GYCFTACALRNGVRICYRRCN-OH; disulfide 3-20, 7-16)
Minimum inhibitory concentration (MIC): Gram-positive Geometric mean (Gram-positive bacteria): 10.08 µM (≈ 24.6 µg/mL)
RP-HPLC Retention Time [1]: 26.05 min

CC[C@H](C)[C@@H]1NC(=O)[C@H](CCCNC(=N)N)NC(=O)[C@H](C(C)C)NC(=O)CNC(=O)[C@H](CC(N)=O)NC(=O)[C@H](CCCNC(=N)N)NC(=O)[C@H](CC(C)C)NC(=O)[C@H](CCCNC(=N)N)NC(=O)[C@@H]2CSSC[C@H](NC1=O)C(=O)N[C@@H](Cc1ccc(O)cc1)C(=O)N[C@@H](CCCNC(=N)N)C(=O)N[C@@H](CCCNC(=N)N)C(=O)N[C@H](C(=O)N[C@@H](CC(N)=O)C(=O)O)CSSC[C@H](NC(=O)[C@H](Cc1ccc(O)cc1)NC(=O)CN)C(=O)N[C@@H](Cc1ccccc1)C(=O)N[C@@H]([C@@H](C)O)C(=O)N[C@@H](C)C(=O)N2 [Ap2] (H-GYCFTACRLRNGVRICYRRCN-OH; disulfide 3-20, 7-16)
Minimum inhibitory concentration (MIC): Gram-positive Geometric mean (Gram-positive bacteria): 12.7 µM (≈ 32 µg/mL)
RP-HPLC Retention Time [1]: 24.29 min

CC[C@H](C)[C@@H]1NC(=O)[C@H](CCCNC(=N)N)NC(=O)[C@H](C(C)C)NC(=O)CNC(=O)[C@H](CC(N)=O)NC(=O)[C@H](CCCNC(=N)N)NC(=O)[C@H](C)NC(=O)[C@H](Cc2ccc(O)cc2)NC(=O)[C@@H]2CSSC[C@H](NC1=O)C(=O)N[C@@H](Cc1ccc(O)cc1)C(=O)N[C@@H](CCCNC(=N)N)C(=O)N[C@@H](CCCNC(=N)N)C(=O)N[C@H](C(=O)N[C@@H](CC(N)=O)C(=O)O)CSSC[C@H](NC(=O)[C@H](Cc1ccc(O)cc1)NC(=O)CN)C(=O)N[C@@H](Cc1ccccc1)C(=O)N[C@@H]([C@@H](C)O)C(=O)N[C@@H](C)C(=O)N2 [Ap3] (H-GYCFTACYARNGVRICYRRCN-OH; disulfide 3-20, 7-16)
Hemolytic activity (in words) (human red blood cells): ability to lyse hRBCs is stronger
Minimum inhibitory concentration (MIC): Gram-positive Geometric mean (Gram-positive bacteria): 1 µM (≈ 2.49 µg/mL)
RP-HPLC Retention Time [1]: 25.47 min

CC[C@H](C)[C@@H]1NC(=O)[C@H](CCCNC(=N)N)NC(=O)[C@H](C)NC(=O)CNC(=O)[C@H](CC(N)=O)NC(=O)[C@H](CCCNC(=N)N)NC(=O)[C@H](CC(C)C)NC(=O)[C@H](Cc2ccc(O)cc2)NC(=O)[C@@H]2CSSC[C@H](NC1=O)C(=O)N[C@@H](Cc1ccc(O)cc1)C(=O)N[C@@H](CCCNC(=N)N)C(=O)N[C@@H](CCCNC(=N)N)C(=O)N[C@H](C(=O)N[C@@H](CC(N)=O)C(=O)O)CSSC[C@H](NC(=O)[C@H](Cc1ccc(O)cc1)NC(=O)CN)C(=O)N[C@@H](Cc1ccccc1)C(=O)N[C@@H]([C@@H](C)O)C(=O)N[C@@H](C)C(=O)N2 [Ap5] (H-GYCFTACYLRNGARICYRRCN-OH; disulfide 3-20, 7-16)
Minimum inhibitory concentration (MIC): Gram-positive Geometric mean (Gram-positive bacteria): 5.04 µM (≈ 12.6 µg/mL)
RP-HPLC Retention Time [1]: 25.53 min

CC[C@H](C)[C@@H]1NC(=O)[C@H](CCCNC(=N)N)NC(=O)[C@H](CCCNC(=N)N)NC(=O)CNC(=O)[C@H](CC(N)=O)NC(=O)[C@H](CCCNC(=N)N)NC(=O)[C@H](CC(C)C)NC(=O)[C@H](Cc2ccc(O)cc2)NC(=O)[C@@H]2CSSC[C@H](NC1=O)C(=O)N[C@@H](Cc1ccc(O)cc1)C(=O)N[C@@H](CCCNC(=N)N)C(=O)N[C@@H](CCCNC(=N)N)C(=O)N[C@H](C(=O)N[C@@H](CC(N)=O)C(=O)O)CSSC[C@H](NC(=O)[C@H](Cc1ccc(O)cc1)NC(=O)CN)C(=O)N[C@@H](Cc1ccccc1)C(=O)N[C@@H]([C@@H](C)O)C(=O)N[C@@H](C)C(=O)N2 [Ap6] (H-GYCFTACYLRNGRRICYRRCN-OH; disulfide 3-20, 7-16)
Minimum inhibitory concentration (MIC): Gram-positive Geometric mean (Gram-positive bacteria): 6.35 µM (≈ 16.4 µg/mL)
RP-HPLC Retention Time [1]: 24.69 min

CC(C)C[C@@H]1NC(=O)[C@H](Cc2ccc(O)cc2)NC(=O)[C@@H]2CSSC[C@H](NC(=O)[C@H](C)NC(=O)[C@H](CCCNC(=N)N)NC(=O)[C@H](C(C)C)NC(=O)CNC(=O)[C@H](CC(N)=O)NC(=O)[C@H](CCCNC(=N)N)NC1=O)C(=O)N[C@@H](Cc1ccc(O)cc1)C(=O)N[C@@H](CCCNC(=N)N)C(=O)N[C@@H](CCCNC(=N)N)C(=O)N[C@H](C(=O)N[C@@H](CC(N)=O)C(=O)O)CSSC[C@H](NC(=O)[C@H](Cc1ccc(O)cc1)NC(=O)CN)C(=O)N[C@@H](Cc1ccccc1)C(=O)N[C@@H]([C@@H](C)O)C(=O)N[C@@H](C)C(=O)N2 [Ap7] (H-GYCFTACYLRNGVRACYRRCN-OH; disulfide 3-20, 7-16)
Minimum inhibitory concentration (MIC): Gram-positive Geometric mean (Gram-positive bacteria): 8 µM (≈ 19.9 µg/mL)
RP-HPLC Retention Time [1]: 25.61 min

CC(C)C[C@@H]1NC(=O)[C@H](Cc2ccc(O)cc2)NC(=O)[C@@H]2CSSC[C@H](NC(=O)[C@H](CCCNC(=N)N)NC(=O)[C@H](CCCNC(=N)N)NC(=O)[C@H](C(C)C)NC(=O)CNC(=O)[C@H](CC(N)=O)NC(=O)[C@H](CCCNC(=N)N)NC1=O)C(=O)N[C@@H](Cc1ccc(O)cc1)C(=O)N[C@@H](CCCNC(=N)N)C(=O)N[C@@H](CCCNC(=N)N)C(=O)N[C@H](C(=O)N[C@@H](CC(N)=O)C(=O)O)CSSC[C@H](NC(=O)[C@H](Cc1ccc(O)cc1)NC(=O)CN)C(=O)N[C@@H](Cc1ccccc1)C(=O)N[C@@H]([C@@H](C)O)C(=O)N[C@@H](C)C(=O)N2 [Ap8] (H-GYCFTACYLRNGVRRCYRRCN-OH; disulfide 3-20, 7-16)
Minimum inhibitory concentration (MIC): Gram-positive Geometric mean (Gram-positive bacteria): 16 µM (≈ 41.1 µg/mL)
RP-HPLC Retention Time [1]: 24.34 min

CC[C@H](C)[C@@H]1NC(=O)[C@H](CCCNC(=N)N)NC(=O)[C@H](C)NC(=O)CNC(=O)[C@H](CC(N)=O)NC(=O)[C@H](CCCNC(=N)N)NC(=O)[C@H](CCCNC(=N)N)NC(=O)[C@H](Cc2ccc(O)cc2)NC(=O)[C@@H]2CSSC[C@H](NC1=O)C(=O)N[C@@H](Cc1ccc(O)cc1)C(=O)N[C@@H](CCCNC(=N)N)C(=O)N[C@@H](CCCNC(=N)N)C(=O)N[C@H](C(=O)N[C@@H](CC(N)=O)C(=O)O)CSSC[C@H](NC(=O)[C@H](Cc1ccc(O)cc1)NC(=O)CN)C(=O)N[C@@H](Cc1ccccc1)C(=O)N[C@@H]([C@@H](C)O)C(=O)N[C@@H](C)C(=O)N2 [Ap10] (H-GYCFTACYRRNGARICYRRCN-OH; disulfide 3-20, 7-16)
Minimum inhibitory concentration (MIC): Gram-negative Geometric mean (Gram-negative bacteria): 0.31 µM (≈ 0.788 µg/mL)
Minimum inhibitory concentration (MIC): Gram-positive Geometric mean (Gram-positive bacteria): 2.52 µM (≈ 6.41 µg/mL)
RP-HPLC Retention Time [1]: 24.41 min
